The source of these data is ChEMBL document CHEMBL1201862, “PubChem BioAssay data set” (2004).

Each structure is given as a SMILES string. Active and inactive are the calls of the source.

Test [1] has as its target Tyrosine-protein kinase receptor TYRO3 (Homo sapiens, UniProt Q06418). It is filed as functional.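 Note: TYRO3 value obtained as one member of a kinome-wide profiling panel.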
Test [2] concerns the target Cyclin-dependent kinase 8 (Homo sapiens, UniProt P49336). The experiment in a line: Navigating the Kinome. Panel member name: CDK8. It is filed as functional.
Test [3] in a line: viability loss in Vero cells – cell-based, purified and synthesized samples, set 8, cytotoxicity control for M. tuberculosis inhibitor project (AID 602431). It counts as functional. The note with it: Mycobacterium tuberculosis.
Test [4] deals with T1, Apoptotic protease-activating factor 1 (Homo sapiens, UniProt O14727).
T1 sequence (O14727 whole entry): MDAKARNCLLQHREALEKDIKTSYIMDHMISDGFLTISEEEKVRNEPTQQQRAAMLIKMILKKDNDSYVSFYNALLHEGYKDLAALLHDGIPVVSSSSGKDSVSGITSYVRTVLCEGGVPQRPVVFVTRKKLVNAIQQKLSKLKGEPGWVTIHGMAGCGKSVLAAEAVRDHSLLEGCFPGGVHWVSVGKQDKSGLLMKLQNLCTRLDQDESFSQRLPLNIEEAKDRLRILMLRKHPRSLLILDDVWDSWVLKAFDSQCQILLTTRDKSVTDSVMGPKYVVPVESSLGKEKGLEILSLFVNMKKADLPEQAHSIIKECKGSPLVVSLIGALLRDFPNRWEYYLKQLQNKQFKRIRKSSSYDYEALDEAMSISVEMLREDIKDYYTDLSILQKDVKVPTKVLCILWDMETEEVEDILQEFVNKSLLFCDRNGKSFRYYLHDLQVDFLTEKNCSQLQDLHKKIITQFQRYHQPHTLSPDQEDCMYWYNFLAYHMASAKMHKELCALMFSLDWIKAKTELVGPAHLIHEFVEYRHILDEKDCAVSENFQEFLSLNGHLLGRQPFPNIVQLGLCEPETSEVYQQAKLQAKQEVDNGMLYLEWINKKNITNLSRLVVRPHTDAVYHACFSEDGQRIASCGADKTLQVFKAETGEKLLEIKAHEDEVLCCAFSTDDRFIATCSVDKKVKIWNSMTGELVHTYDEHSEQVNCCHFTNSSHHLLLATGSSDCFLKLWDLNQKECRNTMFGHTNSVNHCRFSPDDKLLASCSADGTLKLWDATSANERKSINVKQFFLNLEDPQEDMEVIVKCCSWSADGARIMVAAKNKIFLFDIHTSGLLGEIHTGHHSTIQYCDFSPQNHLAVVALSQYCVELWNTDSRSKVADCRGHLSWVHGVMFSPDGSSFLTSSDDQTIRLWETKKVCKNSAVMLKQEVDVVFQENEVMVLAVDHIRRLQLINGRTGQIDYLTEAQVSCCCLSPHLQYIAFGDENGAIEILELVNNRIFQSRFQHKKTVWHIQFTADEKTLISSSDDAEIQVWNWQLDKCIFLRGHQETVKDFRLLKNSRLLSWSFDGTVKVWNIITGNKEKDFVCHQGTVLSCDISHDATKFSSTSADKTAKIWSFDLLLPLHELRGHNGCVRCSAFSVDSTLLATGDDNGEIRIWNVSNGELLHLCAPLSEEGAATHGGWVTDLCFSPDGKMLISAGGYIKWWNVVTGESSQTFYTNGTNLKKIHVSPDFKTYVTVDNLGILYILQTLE
The experiment in a line: SAR analysis of small molecule Activators of Apaf-1 in a Fluorescent assay. It counts as functional. The note with it: read-out: EC50_Mean.

Test [5] deals with T2, High affinity choline transporter 1 (Homo sapiens, UniProt Q9GZV3).
T2 sequence (Q9GZV3 whole entry): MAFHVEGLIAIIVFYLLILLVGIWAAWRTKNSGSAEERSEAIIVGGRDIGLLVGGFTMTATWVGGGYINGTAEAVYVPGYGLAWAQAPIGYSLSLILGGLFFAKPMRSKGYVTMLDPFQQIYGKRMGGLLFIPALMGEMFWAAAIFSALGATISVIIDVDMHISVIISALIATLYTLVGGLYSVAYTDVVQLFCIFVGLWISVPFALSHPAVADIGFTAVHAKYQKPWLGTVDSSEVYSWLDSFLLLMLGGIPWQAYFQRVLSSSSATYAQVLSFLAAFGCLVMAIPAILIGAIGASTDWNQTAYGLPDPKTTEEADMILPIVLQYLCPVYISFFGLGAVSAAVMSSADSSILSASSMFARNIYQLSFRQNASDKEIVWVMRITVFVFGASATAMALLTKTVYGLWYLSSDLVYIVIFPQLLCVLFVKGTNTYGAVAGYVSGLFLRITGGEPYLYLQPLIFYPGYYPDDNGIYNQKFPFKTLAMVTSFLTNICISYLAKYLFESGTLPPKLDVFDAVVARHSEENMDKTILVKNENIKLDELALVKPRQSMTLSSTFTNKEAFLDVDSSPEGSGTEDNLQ
The test can be described thus: human choline transporter blockers, potency – cell-based, 5-point CRC, membrane potential dye, dose response (AID 504840). It counts as functional.

Test [6] deals with T2, High affinity choline transporter 1. The experiment in a line: human choline transporter blockers, potency – cell-based, 10-point CRC, membrane potential dye, dose response (AID 588401).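 Note: membrane potential dye fluorescence of choline-evoked depolarization via CHT.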 It is filed as functional.
The target of test [7] is Protein disulfide-isomerase (Homo sapiens, UniProt P07237). The test can be described thus: inhibition of PDI-driven insulin aggregation – biochemical, turbidity, absorbance, cherry-picked samples, dose response (AID 602350). It counts as functional.
Test [8] deals with T3, RNA-binding protein pos-1 (Caenorhabditis elegans, UniProt G5EF15).
T3 sequence (G5EF15 whole entry): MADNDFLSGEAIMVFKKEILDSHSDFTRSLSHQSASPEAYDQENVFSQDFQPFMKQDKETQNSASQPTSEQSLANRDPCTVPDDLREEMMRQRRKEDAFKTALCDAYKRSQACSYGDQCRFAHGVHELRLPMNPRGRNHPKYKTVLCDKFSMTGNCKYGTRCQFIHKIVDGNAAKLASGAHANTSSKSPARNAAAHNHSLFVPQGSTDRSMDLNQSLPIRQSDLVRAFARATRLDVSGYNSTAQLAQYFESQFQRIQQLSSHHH
The test can be described thus: disruptors of C. elegans POS-1 RNA interaction – biochemical, fluorescence polarization, dose response (AID 1964).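 Note: purified POS-1 fused to maltose binding protein made in E. coli; potency of compounds blocking POS-1 binding to fluorescent RNA.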 Background: Polarisation of emitted light reports the rotation of a fluorescent probe.

Test [9] concerns the target T4, Mannose-6-phosphate isomerase (Homo sapiens, UniProt P34949).
T4 sequence (P34949 whole entry): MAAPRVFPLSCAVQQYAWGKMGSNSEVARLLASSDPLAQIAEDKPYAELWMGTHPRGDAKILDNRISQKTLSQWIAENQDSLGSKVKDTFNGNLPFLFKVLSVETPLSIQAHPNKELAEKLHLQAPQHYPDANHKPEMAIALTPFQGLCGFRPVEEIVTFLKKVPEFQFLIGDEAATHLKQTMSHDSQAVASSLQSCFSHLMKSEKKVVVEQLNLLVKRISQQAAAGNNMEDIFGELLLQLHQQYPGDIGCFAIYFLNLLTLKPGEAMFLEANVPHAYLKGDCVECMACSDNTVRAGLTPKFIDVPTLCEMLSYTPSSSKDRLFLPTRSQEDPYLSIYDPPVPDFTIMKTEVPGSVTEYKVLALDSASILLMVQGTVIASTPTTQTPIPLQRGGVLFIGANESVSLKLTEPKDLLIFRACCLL
The test can be described thus: MPI inhibition at elevated mannose 6-phosphate – biochemical, fluorescence intensity, high mannose 6-phosphate, primary screen (AID 1220).

Test [10] deals with T5, RNA-editing ligase 1, mitochondrial (Trypanosoma brucei brucei, UniProt P86926).
T5 sequence (P86926 whole entry): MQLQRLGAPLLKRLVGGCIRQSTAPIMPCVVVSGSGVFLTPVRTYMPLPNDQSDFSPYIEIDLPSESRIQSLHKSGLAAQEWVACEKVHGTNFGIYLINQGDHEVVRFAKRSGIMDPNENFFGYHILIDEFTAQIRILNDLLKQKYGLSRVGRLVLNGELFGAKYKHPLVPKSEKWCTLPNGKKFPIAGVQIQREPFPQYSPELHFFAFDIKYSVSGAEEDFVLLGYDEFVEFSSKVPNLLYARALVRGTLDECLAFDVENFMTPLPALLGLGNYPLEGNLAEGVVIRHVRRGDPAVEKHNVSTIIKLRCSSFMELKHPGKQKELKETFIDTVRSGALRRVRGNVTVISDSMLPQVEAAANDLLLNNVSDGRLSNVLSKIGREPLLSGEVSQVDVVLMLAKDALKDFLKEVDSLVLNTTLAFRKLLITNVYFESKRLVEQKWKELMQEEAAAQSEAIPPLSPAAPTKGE
The experiment in a line: inhibition of trypanosome RNA editing ligase – biochemical, fluorescence, Trypanosoma brucei, dose response (AID 1117295). It counts as functional.

The target in test [11] is T6, Zinc finger protein mex-5 (Caenorhabditis elegans, UniProt Q9XUB2).
T6 sequence (Q9XUB2 whole entry): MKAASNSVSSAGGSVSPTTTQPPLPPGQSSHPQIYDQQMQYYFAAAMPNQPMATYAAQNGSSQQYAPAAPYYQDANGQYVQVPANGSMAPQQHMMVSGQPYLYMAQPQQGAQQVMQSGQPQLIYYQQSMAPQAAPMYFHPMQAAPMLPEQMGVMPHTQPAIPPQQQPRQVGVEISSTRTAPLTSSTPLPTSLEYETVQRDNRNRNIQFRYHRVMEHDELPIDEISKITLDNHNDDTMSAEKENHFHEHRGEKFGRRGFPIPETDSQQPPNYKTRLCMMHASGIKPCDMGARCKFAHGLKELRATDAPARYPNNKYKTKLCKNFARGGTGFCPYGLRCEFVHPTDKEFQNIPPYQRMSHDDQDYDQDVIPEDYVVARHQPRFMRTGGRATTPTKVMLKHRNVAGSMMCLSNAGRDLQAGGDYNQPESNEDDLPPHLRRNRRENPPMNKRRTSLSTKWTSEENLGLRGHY
The test can be described thus: potency of MEX-5 RNA-binding blockers – biochemical, C. elegans, fluorescence polarization, dose response (AID 1960).

The nature of test [12]: alpha-synuclein stem-loop luciferase translation blockers – H4 neuroglioma cells, luminescence, confirmation (AID 1988). It counts as functional, cell-based.
Test [13] in a line: luciferase reporter signal reduction – luminescence, H4-C neuroglioblastoma cells, dose response (AID 2458).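 Note: H4 neuroglioblastoma cells stably carrying a luciferase reporter gene fusion.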 It is filed as functional, cell-based.
A short description of test [14]: luciferase reporter signal suppression in cells – H4 neuroglioma cells, luminescence, dose response (AID 1990). It is filed as functional, cell-based. A general note: Reporter assays use an easily measured gene product as a stand-in for the process of interest.
Test [15] can be described thus: viability loss of HPDE-C7K cells – cell-based, fluorescence, HTS, primary screen (AID 431). The note with it: Homo sapiens. It counts as functional.
The next test can be described thus: cells. It counts as functional, cell-based.
Test [16] is described as follows: alpha-synuclein stem-loop translation blockers – luminescence, H4 neuroglioblastoma cells, dose confirmation, confirmation (AID 2454).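 Note: H4 neuroglioblastoma cells carrying an alpha-synuclein 5'UTR luciferase reporter; potency for inhibition of the luciferase signal.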 It is filed as functional, cell-based.
Test [17] can be described thus: HPDE-C7 pancreatic duct cell viability loss – fluorescence, HTS (AID 430). It is filed as functional, cell-based. To be noted: Homo sapiens.
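Throughout, for EC50 Mean: caspase-3 cleavage of fluorogenic Rh110 DEVD substrate downstream of apoptosome activation.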

Chain of Protein disulfide-isomerase (P07237 whole entry): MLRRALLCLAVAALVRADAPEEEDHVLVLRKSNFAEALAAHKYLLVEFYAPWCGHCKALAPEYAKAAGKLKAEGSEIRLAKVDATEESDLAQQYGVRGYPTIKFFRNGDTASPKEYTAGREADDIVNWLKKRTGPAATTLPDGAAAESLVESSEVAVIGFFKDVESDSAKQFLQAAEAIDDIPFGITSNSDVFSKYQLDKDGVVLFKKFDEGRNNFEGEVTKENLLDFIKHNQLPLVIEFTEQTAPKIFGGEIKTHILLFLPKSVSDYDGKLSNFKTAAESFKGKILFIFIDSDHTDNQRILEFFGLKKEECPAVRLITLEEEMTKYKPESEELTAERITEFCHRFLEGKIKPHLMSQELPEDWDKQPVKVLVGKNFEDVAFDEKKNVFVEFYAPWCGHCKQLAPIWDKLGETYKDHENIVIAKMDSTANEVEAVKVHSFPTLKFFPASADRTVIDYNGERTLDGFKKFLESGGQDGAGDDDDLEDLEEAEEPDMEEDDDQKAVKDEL
Chain of Tyrosine-protein kinase receptor TYRO3 (Q06418 whole entry): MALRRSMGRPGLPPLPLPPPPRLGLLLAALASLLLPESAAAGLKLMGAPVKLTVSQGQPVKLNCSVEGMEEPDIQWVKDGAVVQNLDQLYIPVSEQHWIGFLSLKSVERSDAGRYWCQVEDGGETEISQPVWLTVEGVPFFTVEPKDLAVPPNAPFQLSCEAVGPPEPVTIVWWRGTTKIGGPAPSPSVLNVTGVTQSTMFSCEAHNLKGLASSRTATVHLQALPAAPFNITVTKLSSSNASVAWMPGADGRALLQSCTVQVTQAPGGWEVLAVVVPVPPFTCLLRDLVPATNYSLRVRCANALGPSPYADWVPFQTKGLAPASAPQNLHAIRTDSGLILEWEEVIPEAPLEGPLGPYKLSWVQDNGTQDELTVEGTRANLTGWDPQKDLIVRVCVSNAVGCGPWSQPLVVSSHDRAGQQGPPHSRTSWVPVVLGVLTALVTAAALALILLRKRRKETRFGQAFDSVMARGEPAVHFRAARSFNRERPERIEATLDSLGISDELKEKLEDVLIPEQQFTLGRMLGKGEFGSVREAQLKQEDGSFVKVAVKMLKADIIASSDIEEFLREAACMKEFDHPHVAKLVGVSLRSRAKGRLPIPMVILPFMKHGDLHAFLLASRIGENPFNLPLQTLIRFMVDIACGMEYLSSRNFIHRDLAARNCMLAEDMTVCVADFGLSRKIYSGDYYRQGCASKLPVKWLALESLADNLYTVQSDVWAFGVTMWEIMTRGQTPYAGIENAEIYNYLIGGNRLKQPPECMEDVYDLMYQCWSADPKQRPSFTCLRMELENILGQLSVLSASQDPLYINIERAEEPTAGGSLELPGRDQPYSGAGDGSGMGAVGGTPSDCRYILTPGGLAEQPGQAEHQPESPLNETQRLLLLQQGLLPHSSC
Chain of Cyclin-dependent kinase 8 (P49336 whole entry): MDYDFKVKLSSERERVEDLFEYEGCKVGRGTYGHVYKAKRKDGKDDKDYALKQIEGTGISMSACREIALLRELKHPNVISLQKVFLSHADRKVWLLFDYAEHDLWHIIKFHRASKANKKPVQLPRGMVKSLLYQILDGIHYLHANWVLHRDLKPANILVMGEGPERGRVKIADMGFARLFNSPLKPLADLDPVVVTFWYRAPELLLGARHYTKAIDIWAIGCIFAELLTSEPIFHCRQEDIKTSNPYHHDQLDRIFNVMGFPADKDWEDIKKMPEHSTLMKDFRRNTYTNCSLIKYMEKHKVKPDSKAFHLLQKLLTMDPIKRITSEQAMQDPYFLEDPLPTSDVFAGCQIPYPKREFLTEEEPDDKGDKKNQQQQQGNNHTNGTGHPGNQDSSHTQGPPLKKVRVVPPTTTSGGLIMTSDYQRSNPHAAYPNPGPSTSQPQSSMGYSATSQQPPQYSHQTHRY

Usually Ki stands for the dissociation constant of the complex between target and ligand, obtained from inhibition or displacement. Consider `NC(=O)CCN1CCN(C2Cc3cc(Cl)ccc3Sc3cc(F)ccc32)CC1` (stereo not given), for which the Ki in [1] and in test [2] was 1580 nM (active) throughout.
A word on the CC50: it is the concentration giving 50% cytotoxicity. With `O=C(c1ccc(CNc2c(N3CCCC3)c(=O)c2=O)cc1)N1CCC(c2ccccc2)CC1`, in test [3], the CC50 was > 100000 nM (inconclusive).
As to `Cc1ccc(N2C(=O)CC3(CC(c4ccccc4Cl)=NO3)C2=O)cc1` (stereo not given), the EC50 in [4] is > 100000 nM (inactive).
As a reminder, the IC50 is the concentration that gives 50% inhibition. Turning to `CCCCN(CCCC)CCNC(=O)c1cn(CC)c2ccc(S(=O)(=O)N3CCc4ccccc4C3)cc2c1=O`, the half-maximal inhibitory concentration (IC50) is 4070 nM (active) in [5] and 4280 nM (active) in [6].
In general, AC50 refers to the concentration at which the activity in the assay is half-maximal. Regarding `C[C@@H]1O[C@@H](Oc2c(-c3cc(O)c(O)c(O)c3)oc3cc(O)cc(O)c3c2=O)[C@H](O)[C@H](O)[C@H]1O`, the half-maximal activity concentration (AC50) in [7] was 9800 nM (active). Besides, the EC50 in test [8] was 15800 nM (active); in test [11], 14000 nM (active). Further, the concentration for half-maximal inhibition (IC50) in test [9] is 31000 nM (active); in [10], 51400 nM (inactive).
As for `COc1ccc(C2=Nn3c(nnc3-c3ccccc3OC)SC2)cc1OC`, the EC50 in [12] was < 100 nM (active); in [13], 624 nM (active); in [14], < 100 nM (active); in [15], 300 nM (active); in “cells” it was 494 nM (active); in test [16], 551 nM (active). The EC50 in test [17] was 700 nM (active). Besides, the figures for the half-maximal inhibitory concentration (IC50) in test [5] and in test [6] were 1150 nM (active) and 4220 nM (active), respectively.
